The conditions of series [1]: amide bond, 13-membered ring, HATU/DIEA, 25.0 °C.
Series [2] addresses T1, F508del in NIH 3T3 cells (Homo sapiens, UniProt P13569, DEL508-508).
T1 construct: expressed in transfected cells
The experiment in a line: 3T3 assay: membrane potential optical assay for F508del correction. Type of series: cell-based, mouse. The settings on record: F508del NIH 3T3 cells; for EC50: compound incubation 18-24 hours at 37° C., forskolin activation; for 3T3 Max Activity: efficacy compared to lumacaftor in combination with acutely added 300 nM Ivacaftor. From the text: The assay utilizes fluorescent voltage sensing dyes to measure changes in membrane potential using a fluorescent plate reader (e.g., FLIPR III, Molecular Devices, Inc.) as a readout for increase in functional F508del in NIH 3T3 cells. The driving force for the response is the creation of a chloride ion gradient in conjunction with channel activation by a single liquid addition step after the cells have previously been treated with compounds and subsequently loaded with a voltage sensing dye.
To identify correctors of F508del, a single-addition HTS assay format was developed. This HTS assay utilizes fluorescent voltage sensing dyes to measure changes in membrane potential on the FLIPR III as a measurement for increase in gating (conductance) of F508del in F508del NIH 3T3 cells. The F508del NIH 3T3 cell cultures were incubated with the corrector compounds at a range of concentrations for 18-24 hours at 37° C., and subsequently loaded with a redistribution dye. The driving force for the response is a Cl^− ion gradient in conjunction with channel activation with forskolin in a single liquid addition step using a fluorescent plate reader such as FLIPR III.
Bath Solution #1: (in mM) NaCl 160, KCl 4.5, CaCl2) 2, MgCl2 1, HEPES 10, pH 7.4 with NaOH.
Chloride-free bath solution: Chloride salts in Bath Solution #1 (above) are substituted with gluconate salts.
NIH3T3 mouse fibroblasts stably expressing F508del are used for optical measurements of membrane potential. The cells are maintained at 37° C. in 5% CO2 and 90% humidity in Dulbecco's modified Eagle's medium supplemented with 2 mM glutamine, 10% fetal bovine serum, 1×NEAA, b-ME, 1×pen/strep, and 25 mM HEPES in 175 cm^2 culture flasks. For all optical assays, the cells were seeded at ˜20,000/well in 384-well Matrigel-coated plates. For the correction assays, the cells are cultured at 37° C. with and without compounds for 16-24 hours.

For series [3] the following is noted: amide bond, HATU/DIEA, DMF, 25.0 °C, 0.083 h.
For series [4], the target named is T2, CFTR-mediated chloride transport in human intestinal epithelial enteroid cells (Homo sapiens, UniProt P13569). Description: Membrane potential dye, Enteroid Assay B. The format is cell-based. On the procedure:
(§1) Base medium (ADF+++) consisted of Advanced DMEM/Ham's F12, 2 mM Glutamax, 10 mM HEPES, […] penicillin/streptomycin.
(§2) Intestinal enteroid maintenance medium (IEMM) consisted of ADF+++, 1×B27 supplement, 1×N2 supplement, 1.25 mM N-acetyl cysteine, 10 mM Nicotinamide, 50 ng/mL hEGF, 10 nM Gastrin, 1 μg/mL hR-spondin-1, 100 ng/mL hNoggin, TGF-b type 1 inhibitor A-83-01, 100 μg/mL Primocin, 10 μM P38 MAPK inhibitor SB202190.
(§3) Bath 1 Buffer consisted of 1 mM MgCl2, 160 mM NaCl, 4.5 mM KCl, 10 mM HEPES, 10 mM Glucose, 2 mM CaCl2).
(§4) Chloride Free Buffer consisted of 1 mM Magnesium Gluconate, 2 mM Calcium Gluconate, 4.5 mM Potassium Gluconate, 160 mM Sodium Gluconate, 10 mM HEPES, 10 mM Glucose.
(§5) BathI Dye Solution consisted of Bath 1 Buffer, 0.04% Pluronic F127, 20 μM Methyl Oxonol, 30 μM CaCCinh-A01, 30 μM Chicago Sky Blue.
(§6) Chloride Free Dye Solution consisted of Chloride Free Buffer, 0.04% Pluronic F127, 20 μM Methyl Oxonol, 30 μM CaCCinh-A01, 30 μM Chicago Sky Blue.
(§7) Chloride Free Dye Stimulation Solution consisted of Chloride Free Dye Solution, 10 μM forskolin, 100 μM IBMX, and 300 nM Compound III.
(§8) Human intestinal epithelial enteroid cells were obtained from the Hubrecht Institute for Developmental Biology and Stem Cell Research, Utrecht, The Netherlands and expanded in T-Flasks as previously described (Dekkers J F, Wiegerinck C L, de Jonge H R, Bronsveld I, Janssens H M, de Winter-de Groot K M, Brandsma A M, de Jong N W M, Bijvelds M J C, Scholte B J, Nieuwenhuis E E S, van den Brink S, Clevers H, van der Ent C K, Middendorp S and M Beekman J M. A functional CFTR assay using primary cystic fibrosis intestinal organoids. Nat Med. 2013 July; 19(7):939-45.).
(§9) Cells were recovered in cell recovery solution, collected by centrifugation at 650 rpm for 5 minutes at 4° C., resuspended in TrypLE and incubated for 5 minutes at 37° C. Cells were then collected by centrifugation at 650 rpm for 5 minutes at 4° C. and resuspended in IEMM containing 10 μM ROCK inhibitor (RI). The cell suspension was passed through a 40 μm cell strainer and resuspended at 1×10^6 cells/mL in IEMM containing 10 μM RI. Cells were seeded at 5000 cells/well into multi-well plates and incubated for overnight at 37° C., 95% humidity and 5% CO2 prior to assay.
(§10) Enteroid cells were incubated with test compound in IEMM for 18-24 hours at 37° C., 95% humidity, and 5% C02. […] Briefly, cells were washed 5 times in Bath 1 Buffer. Bath 1 Dye Solution was added and the cells were incubated for 25 minutes at room temperature. Following dye incubation, cells were washed 3 times in Chloride Free Dye Solution. Chloride transport was initiated by addition of Chloride Free Dye Stimulation Solution and the fluorescence signal was read for 15 minutes. […] Chloride transport was then expressed as a percentage of the chloride transport following treatment with 1 μM (14S)-8-[3-(2-{Dispiro[2.0.2.1]heptan-7-yl}ethoxy)-1H-pyrazol-1-yl]-12,12-dimethyl-2λ^6-thia-3,9,11,18,23-pentaazatetracyclo[17.3.1.111,14.05,10]tetracosa-1(22),5,7,9,19(23),20-hexaene-2,2,4-trione, 3 μM (R)-1-(2,2-difluorobenzo[d][1,3]dioxol-5-yl)-N-(1-(2,3-dihydroxypropyl)-6-fluoro-2-(1-hydroxy-2-methylpropan-2-yl)-1H-indol-5-yl)cyclopropanecarboxamide and 300 nM acute N-[2,4-bis(1,1-dimethylethyl)-5-hydroxyphenyl]-1,4-dihydro-4-oxoquinoline-3-carboxamide triple combination control (% Activity).

In series [5] the target is T2, CFTR-mediated chloride transport in human intestinal epithelial enteroid cells. Description: Membrane potential dye, Enteroid Assay A. The format is cell-based. On the procedure: as §1, §2, §3, §4, §5, §6, §7, §8, §9
as §10, with “95% humidity” for “95% humidity,”, “was added,” for “was added”, “with 3” for “with 1”, “μM (S)—N-((6-aminopyridin-2-yl)sulfonyl)-6-(3-fluoro-5-isobutoxyphenyl)-2-(2,2,4-trimethylpyrrolidin-1-yl)nicotinamide,” for “μM (14S)-8-[3-(2-{Dispiro[2.0.2.1]heptan-7-yl}ethoxy)-1H-pyrazol-1-yl]-12,12-dimethyl-2λ^6-thia-3,9,11,18,23-pentaazatetracyclo[17.3.1.111,14.05,10]tetracosa-1(22),5,7,9,19(23),20-hexaene-2,2,4-trione,”

Where two headings read alike, the source gives them in different places. Bounds are passed on as bounds.

T1 sequence (P13569 with tags, fused parts or gaps DEL508-508): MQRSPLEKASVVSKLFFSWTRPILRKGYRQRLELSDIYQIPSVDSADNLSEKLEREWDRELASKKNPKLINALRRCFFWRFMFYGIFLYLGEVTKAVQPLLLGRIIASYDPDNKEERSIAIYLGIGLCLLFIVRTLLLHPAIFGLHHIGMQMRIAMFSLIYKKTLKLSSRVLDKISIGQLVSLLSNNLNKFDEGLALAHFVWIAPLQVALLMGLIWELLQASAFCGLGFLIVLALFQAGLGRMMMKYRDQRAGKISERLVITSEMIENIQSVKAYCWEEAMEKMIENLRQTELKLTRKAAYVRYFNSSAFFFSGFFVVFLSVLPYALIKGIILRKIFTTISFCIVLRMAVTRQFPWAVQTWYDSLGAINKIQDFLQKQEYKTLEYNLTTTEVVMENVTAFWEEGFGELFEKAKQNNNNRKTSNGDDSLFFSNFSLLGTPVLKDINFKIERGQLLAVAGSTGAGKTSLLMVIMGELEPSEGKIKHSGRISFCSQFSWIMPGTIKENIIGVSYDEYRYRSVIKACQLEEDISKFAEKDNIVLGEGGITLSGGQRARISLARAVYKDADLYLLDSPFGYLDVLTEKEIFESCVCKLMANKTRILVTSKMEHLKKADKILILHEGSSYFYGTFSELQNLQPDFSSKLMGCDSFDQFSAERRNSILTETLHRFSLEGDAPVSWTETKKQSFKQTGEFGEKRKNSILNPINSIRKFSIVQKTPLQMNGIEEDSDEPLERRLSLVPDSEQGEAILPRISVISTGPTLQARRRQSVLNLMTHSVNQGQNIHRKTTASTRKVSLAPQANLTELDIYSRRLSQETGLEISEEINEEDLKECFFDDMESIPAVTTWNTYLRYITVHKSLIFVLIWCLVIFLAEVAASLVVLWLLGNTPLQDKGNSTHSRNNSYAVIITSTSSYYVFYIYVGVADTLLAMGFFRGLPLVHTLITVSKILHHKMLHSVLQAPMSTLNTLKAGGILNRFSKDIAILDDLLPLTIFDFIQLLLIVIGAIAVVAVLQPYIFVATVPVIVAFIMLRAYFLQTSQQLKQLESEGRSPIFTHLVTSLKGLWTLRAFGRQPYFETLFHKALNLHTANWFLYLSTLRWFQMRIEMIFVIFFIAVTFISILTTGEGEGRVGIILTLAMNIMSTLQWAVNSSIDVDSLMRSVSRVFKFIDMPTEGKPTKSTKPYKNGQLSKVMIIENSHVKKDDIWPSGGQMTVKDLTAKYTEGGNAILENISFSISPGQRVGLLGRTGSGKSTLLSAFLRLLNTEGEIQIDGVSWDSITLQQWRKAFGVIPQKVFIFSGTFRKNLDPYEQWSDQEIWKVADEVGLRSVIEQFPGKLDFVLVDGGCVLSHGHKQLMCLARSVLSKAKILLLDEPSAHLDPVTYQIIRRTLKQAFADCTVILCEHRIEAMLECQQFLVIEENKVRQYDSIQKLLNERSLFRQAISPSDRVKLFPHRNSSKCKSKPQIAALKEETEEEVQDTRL
T2 sequence (P13569 with tags, fused parts or gaps DEL508-508): as above

With `COC(=O)CCCN1CCC(C)c2cc(-c3c(C)cccc3C)nc(n2)NS(=O)(=O)c2cccc(c2)C1=O` (centres unmarked), the ring closure, isolated yield in series [1] (from COC(=O)CCCNCCC(C)c1cc(-c2c(C)cccc2C)nc(NS(=O)(=O)c2cccc(C(=O)O)c2)n1, NMP, 22.1 mM, 15.0 h) was found to be 90%.
In the case of `Cc1cccc(C)c1-c1cc2nc(n1)NS(=O)(=O)c1cccc(c1)C(=O)N(C1CC3(CC(NC(=O)OC(C)(C)C)C3)C1)[C@H](CC(C)C)CC2` (some centres unmarked), the ring closure, isolated yield in series [1] (from Cc1cccc(C)c1-c1cc(CC[C@@H](CC(C)C)NC2CC3(CC(NC(=O)OC(C)(C)C)C3)C2)nc(NS(=O)(=O)c2cccc(C(=O)O)c2)n1, NMP, 27.3 mM, 2.0 h) amounted to 88%.
For the compound `Cc1cccc(C)c1-c1cc2nc(n1)NS(=O)(=O)c1cccc(c1)C(=O)N(C1CC3(CCN(C(=O)OC(C)(C)C)CC3)C1)[C@H](CC(C)C)CC2`, the ring closure, isolated yield in series [1] (from Cc1cccc(C)c1-c1cc(CC[C@@H](CC(C)C)NC2CC3(CCN(C(=O)OC(C)(C)C)CC3)C2)nc(NS(=O)(=O)c2cccc(C(=O)O)c2)n1, NMP, 97.4 mM, 2.0 h) amounted to 68%.
With `Cc1cccc(C)c1-c1cc2nc(n1)NS(=O)(=O)c1cccc(c1)NC(=O)CCCCC2` [Compound 1, 6-(2,6-dimethylphenyl)-2,2-dioxo-2 λ6-thia-3,5,15,21-tetrazatricyclo[14.3.1.14,8]henicosa-1(20),4(21),5,7,16,18-hexaen-14-one], in series [2], the EC50 (as a rule, the concentration at which the effect is half-maximal) is less than 1 µM and the “3T3 Max Activity” value is reported as “+++ (+++ is >60%)”. In series [3] (from Cc1cccc(C)c1-c1cc(CCCCCC(=O)O)nc(NS(=O)(=O)c2cccc(N)c2)n1, 15-membered ring, 33.5 mM, 2 steps), this compound registered a ring closure, yield after HPLC of 40%.
For the compound `Cc1cccc(C)c1-c1cc2nc(n1)NS(=O)(=O)c1cccc(c1)NC(=O)c1cccc(c1)C2` [Compound 2, 5-(2,6-Dimethylphenyl)-9 λ6-thia-6,8,15,23-tetraazatetracyclo [15.3.1.13,7.110,14]tricosa-1(21),3(23),4,6,10,12,14(22),17,19-nonaene-9,9,16-trione], in series [2], the EC50 fell in the range of 1 to 3 µM and the “3T3 Max Activity” value is recorded as “+++ (+++ is >60%)”. Besides, in series [3] (from Cc1cccc(C)c1-c1cc(Cc2cccc(C(=O)O)c2)nc(NS(=O)(=O)c2cccc(N)c2)n1, 14-membered ring, 86.8 mM, 3 steps), the ring closure, yield after HPLC turned out to be 14%.
Take `Cc1cccc(C)c1-c1cc2nc(n1)NS(=O)(=O)c1cccc(c1)C(=O)NCCC2c1ccc(C(C)(C)C)cc1` (centres unmarked) [Compound 5, 9-(4-tert-Butylphenyl)-6-(2,6-dimethylphenyl)-2,2-dioxo-2 λ6-thia-3,5,12,19-tetrazatricyclo[12.3.1.14,8]nonadeca-1(18),4(19),5,7,14,16-hexaen-13-one]: in series [1] (from Cc1cccc(C)c1-c1cc(C(CCN)c2ccc(C(C)(C)C)cc2)nc(NS(=O)(=O)c2cccc(C(=O)O)c2)n1, DMF, 11.6 mM, 21.0 h), the ring closure, isolated yield was 40%. In series [4] (% of chloride transport of triple combination control: 1 μM (14S)-8-[3-(2-{Dispiro[2.0.2.1]heptan-7-yl}ethoxy)-1H-pyrazol-1-yl]-12,12-dimethyl-...-2,2,4-trione, 3 μM tezacaftor, 300 nM acute ivacaftor), the “Ent. B Max Activity” value is listed as “+++ (+++ is >60%)”. Further, the EC50 in series [4] (enteroid cells, 18-24 hours incubation, acute 10 μM forskolin and 300 nM ivacaftor, read-out: Ent. B EC50) was less than 1 µM.
On to `Cc1cccc(C)c1-c1cc2nc(n1)NS(=O)(=O)c1cccc(c1)NC(=O)CCCC2` [Compound 12], for which, in series [2], the EC50 lay within 1 to 3 µM and the “3T3 Max Activity” value is “+++ (+++ is >60%)”.
`Cc1cccc(C)c1-c1cc2nc(n1)NS(=O)(=O)c1cccc(c1)NC(=O)CCC2` [Compound 13]: in series [2], the EC50 was in the range of 1 to 3 µM and the “3T3 Max Activity” value is recorded as “+++ (+++ is >60%)”.
Consider `Cc1cccc(C)c1-c1cc2nc(n1)NS(=O)(=O)c1cccc(c1)C(=O)O[C@H](c1ccc(C(C)(C)C)cn1)[C@@H](CC(C)C)N2C` [Compound 35], for which, in series [2], the EC50 is less than 1 µM and the “3T3 Max Activity” value is reported as “+++ (+++ is >60%)”. Further, the “Ent. A Max Activity” value in series [5] (% of chloride transport of triple combination control: 3 μM (S)-N-((6-aminopyridin-2-yl)sulfonyl)-6-(3-fluoro-5-isobutoxyphenyl)-2-(2,2,4-trimethylpyrrolidin-1-yl)nicotinamide, 3 μM tezacaftor, 300 nM acute ivacaftor) is on record as “++ (++ is 30-60%)”. Also, the concentration for a half-maximal effect (EC50) in series [5] (enteroid cells, 18-24 hours incubation, acute 10 μM forskolin and 300 nM ivacaftor, read-out: Ent. A EC50) is 1 to 3 µM.

The values above are taken from patent publication US12612416B2, “Modulators of cystic fibrosis transmembrane conductance regulator” (VERTEX PHARMACEUTICALS INCORPORATED, priority 2020, dated 2026).
